Test results as given in patent EP4745118A1, “HYDROXAMIC ACID COMPOUND OR PHARMACEUTICALLY ACCEPTABLE SALT THEREOF, AND USE THEREOF AND PREPARATION METHOD THEREFOR” (priority 2023, dated 2025).

Legend:
[1] = tested on: Citrobacter freundii; test: In vitro antibacterial activity, agar dilution method (MIC); format: cell-based; conditions: Citrobacter freundii ATCC 43864; agar dilution, 35°C, 18 hours
Summary of the method: (§1)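 Growth inhibition on drug-containing agar read after 18 h at 35°C defined the MIC (lowest concentration, no visible growth). Inoculum of ~10^4 CFU/spot came from 0.5 McFarland suspensions diluted 10-fold.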

[2] = tested on: Enterobacter aerogenes; test: as above; format: cell-based; conditions: Enterobacter aerogenes ATCC 13048; agar dilution, 35°C, 18 hours
Summary of the method: as §1

[3] = tested on: Escherichia coli; test: as above; format: cell-based; conditions: agar dilution, 35°C, 18 hours
Summary of the method: as §1

[4] = tested on: Klebsiella pneumoniae; test: as above; format: cell-based; conditions: agar dilution, 35°C, 18 hours
Summary of the method: as §1

[5] = tested on: Pantoea agglomerans; test: as above; format: cell-based; conditions: Pantoea agglomerans ATCC 27993; agar dilution, 35°C, 18 hours
Summary of the method: as §1

[6] = tested on: Proteus mirabilis; test: as above; format: cell-based; conditions: Proteus mirabilis ATCC 49565; agar dilution, 35°C, 18 hours
Summary of the method: as §1

[7] = tested on: Proteus vulgaris; test: as above; format: cell-based; conditions: Proteus vulgaris ATCC 29905; agar dilution, 35°C, 18 hours
Summary of the method: as §1

[8] = tested on: Pseudomonas aeruginosa; test: as above; format: cell-based; conditions: Pseudomonas aeruginosa PAO1; agar dilution, 35°C, 18 hours
Summary of the method: as §1

[9] = tested on: Serratia marcescens; test: as above; format: cell-based; conditions: Serratia marcescens ATCC 21074; agar dilution, 35°C, 18 hours
Summary of the method: as §1

[10] = tested on: Shigella flexneri; test: as above; format: cell-based; conditions: Shigella flexneri ATCC 12022, 35°C, 18 hours
Summary of the method: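 Agar dilution per CLSI in MH agar, final drug 0.03–128 µg/mL in twofold steps. About 10^4 CFU spotted per site, 35°C for 18 hours; MIC taken as lowest concentration with no growth.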

[11] = tested on: ICR strain mice; test: Acute toxicity in mice, single tail vein injection; format: in vivo; conditions: one week
Description: Healthy ICR strain mice weighing 20-21 g were taken for the experiment, randomly divided into groups of 3 mice per group, regardless of gender. Each compound was administered via a single tail vein injection at a volume of 20 mL/kg. Animal responses were observed immediately postadministration and monitored for one week. The number of animal deaths was recorded and mortality rates calculated.

COCC1CC1C#CC#Cc1ccc(C(=O)NC(C(=O)NO)C(C)(C)N)cc1 (mixture of isomers) [Ia/Ib racemate]
MIC [1]: 0.25 µg/mL
MIC [2]: 1 µg/mL
MIC ([3]; Escherichia coli 13-43 (mcr-1)): 0.12 µg/mL
MIC ([3]; Escherichia coli 17-R28 (CRE, NDM-1-producing)): 0.12 µg/mL
MIC ([3]; Escherichia coli ATCC 2469 (CRE, NDM-1-producing)): 0.5 µg/mL
MIC ([3]; Escherichia coli ATCC 35218 (ESBLs-producing)): 0.25 µg/mL
MIC ([4]; Klebsiella pneumoniae 09-20 (mcr-1)): 0.5 µg/mL
MIC ([4]; Klebsiella pneumoniae 17-R27 (CRE)): 1 µg/mL
MIC ([4]; Klebsiella pneumoniae 18-8 (ESBLs-producing)): 0.5 µg/mL
MIC ([4]; Klebsiella pneumoniae ATCC 700603 (ESBLs-producing)): 2 µg/mL
MIC ([4]; Klebsiella pneumoniae ATCC BAA-2146 (CRE, NDM-1-producing)): 2 µg/mL
MIC [5]: 1 µg/mL
MIC [6]: 1 µg/mL
MIC [7]: 0.25 µg/mL
MIC [8]: 1 µg/mL
MIC [9]: 0.25 µg/mL
MIC [10]: 0.12 µg/mL
Mortality rate ([11]; dose 100 mg/kg): 0%
Number of deaths ([11]; dose 100 mg/kg): 0 individuals
Mortality rate ([11]; dose 150 mg/kg): 100%
Number of deaths ([11]; dose 150 mg/kg): 3 individuals
